Experimental data taken from patent US4088772A, “Methanodibenzocycloheptapyrroles” (E. I. Du Pont de Nemours and Company, priority 1975, dated 1978).
Where a name gives a salt, the structure may show the parent alone. Read-outs that look alike come from different tables or passages of the source.

Experiments:
[1] = in vivo; details: mouse, in vivo, po
Method: (§1) Groups of five Carworth CF1 S female mice, 16-20 g each, were fasted 16-22 hours before use. The mice were put in opaque plastic "shoe-box" cages 15-30 min. before injection, and then treated orally with 4, 12, 36, 108 and 324 mg/kg of the compound to be tested as a 13 mg/ml solution in 1% aqueous distilled water solution of methylcellulose (Methocel®). Each dose was given in a standard volume of 0.45 ml. Observations were made at 0.5, 2 and 24 hours after dosing. ED50 values were calculated for each parameter including death (LD50). The ED50 and LD50 values are the doses at which 50% of the naimals would be expected to respond.
(§2) The mouse is placed on a stainless steel wire mesh screen (8 × 12 inches, 3 mesh per inch, 1/4 inch mesh openings) "shoe-box" lid (1 inch high) and is observed for normal activities, such as nose movements, head movements with apparent visual examination of the area, and/or walking around on the screen. Absence of or marked depression of these activities for 5 seconds constitutes loss of exploratory activity.
(§3) The mouse is picked up by the tail and placed on the screen with its head facing the observer. Bilateral eyelid closure of 50% or more two seconds after placement is considered ptosis.
(§4) The mouse is placed with its front paws on the edge of a stainless steel "shoe-box" cover, 1 inch high, covered with adhesive tape. Failure to remove both paws from the cover's edge within 5 seconds constitutes catatonia.
(§5) The observer gently strokes the abdominal musculature of the mouse with thumb and forefinger. Flaccidity (or rarely, tenseness) is recorded.
(§6) The mouse is gently swung by the tail toward a horizontal 12 gauge wire tautly stretched 25 cm above the bench. After the mouse grasps the wire with its forepaws, its posterior end is held directly below the wire. A normal mouse grasps the wire with its forepaws and immediately lifts its hind limbs to the wire. Failure to grasp the wire with the forepaws in both trials constitutes loss of the grip reflex; failure to lift the hind limbs to grasp the wire with at least one hind paw within 5 seconds constitutes loss of the lift reflex.
(§7) The mouse is placed on the bar 10-20 cm horizontally and 9 cm vertically from a Galton whistle adjusted for 13 kc (5 mm on the whistle scale) and is subjected to several short bursts of sound.
(§8) An effective tranquilizer should induce little or no tremor response. […] Tremors include fine or coarse and intermittent or continuous tremors.

[2] = test system: female white mice; assay: animal or person; details: Mus musculus, po, oral, mice
Method: as §1, §2, §3, §4, §5, §6, §7, §8

[3] = test system: phenylquinone-induced writhing; assay: Phenylquinone writhing test (analgesia); assay type: in vivo, mouse (Carworth CF1 S female); details: Mus musculus
Source text: This mouse test is predictive of analgesic response in humans. [E. Siegmund, R. Cadmus and G. Lee, Proc. Soc.
ED50 values were obtained graphically from the data.

[4] = read-out: Catatonia ED50, Table 1
[5] = read-out: Exploratory Loss Visual ED50, Table 1
[6] = read-out: Muscle Tone ED50, Table 1
[7] = read-out: Reflexes Grip ED50, Table 1
[8] = read-out: Reflexes Lift ED50, Table 1
[9] = read-out: Reflexes Pinna ED50, Table 1
[10] = read-out: Catatonia ED50, Table III
[11] = read-out: Exploratory Loss Visual ED50, Table III
[12] = read-out: Muscle Tone ED50, Table III
[13] = read-out: Ptosis ED50, Table III
[14] = read-out: Reflexes Grip ED50, Table III
[15] = read-out: Reflexes Lift ED50, Table III
[16] = read-out: Reflexes Pinna ED50, Table III

| Structure (SMILES) | LD50 at 24 h [1] [mg/kg] | ED50 [2, 4] [mg/kg] | ED50 [2, 5] [mg/kg] | ED50 [2, 6] [mg/kg] | ED50 ([2]; read-out: Ptosis ED50, Table 1) [mg/kg] | ED50 [2, 7] [mg/kg] | ED50 [2, 8] [mg/kg] | ED50 [2, 9] [mg/kg] | ED50 ([3]; Table 1, oral, mice) [mg/kg] | ED50 ([3]; po, Table 1, mice) [mg/kg] | ED50 [2, 10] [mg/kg] | ED50 [2, 11] [mg/kg] | ED50 [2, 12] [mg/kg] | ED50 [2, 13] [mg/kg] | ED50 [2, 14] [mg/kg] | ED50 [2, 15] [mg/kg] | ED50 [2, 16] [mg/kg] | ED50 ([3]; po, Table III, mice) [mg/kg] |
| --- | --- | --- | --- | --- | --- | --- | --- | --- | --- | --- | --- | --- | --- | --- | --- | --- | --- | --- |
| CCCCCN1C[C@@H]2c3ccccc3[C@@H]3C[C@@]2(C1)c1ccccc13 (relative stereo) [Example 59, 2-n-Pentyl-2,3,8,12b-tetrahydro-1H-3a,8-methanodibenzo[3,4:6,7]cyclohepta[1,2-c]pyrrole] | > 324 | 17 | 8.4 | 13 | 4.5 | 100 | 19 | 8 | 8.2 | – | – | – | – | – | – | – | – | – |
| CC(C)CCN1C[C@@H]2c3ccccc3[C@@H]3C[C@@]2(C1)c1ccccc13 (relative stereo) [Example 60, 2-(3-Methylbutyl)-2,3,8,12b-tetrahydro-1H-3a, 8-methanodibenzo[3,4:6,7]cyclohepta[1,2-c]pyrrole] | > 324 | 20 | 20 | 20 | 36 | 200 | 60 | 36 | 15 | – | – | – | – | – | – | – | – | – |
| c1ccc(CCCCN2C[C@@H]3c4ccccc4[C@@H]4C[C@@]3(C2)c2ccccc24)cc1 (relative stereo) [Example 61, 2-(4-Phenylbutyl)-2,3,8,12b-tetrahydro-1H-3a,8-methanodibenzo[3,4:6,7]cyclohepta[1,2-c]pyrrole] | > 324 | 20 | 20 | 20 | 36 | > 324 | 60 | 36 | – | 5.6 | – | – | – | – | – | – | – | – |
| Nc1ccc2c(c1)[C@]13C[C@H]2c2ccccc2[C@H]1CN(CC1CCCC1)C3 (relative stereo) [Example 64, 5-Amino-2-cyclopentylmethyl-2,3,8,12b-tetrahydro-1H-3a, 8-methanodibenzo[3,4:6,7]cyclohepta[1,2-c]pyrrole Hydrochloride] | > 324 | – | – | – | – | – | – | – | – | – | < 4 | < 4 | < 4 | < 4 | 200 | 12 | 7 | 6.2 |
| CC(=O)Nc1ccc2c(c1)[C@]13C[C@H]2c2ccccc2[C@H]1CN(CC1CCCC1)C3 (relative stereo) [Example 65, 5-Acetamido-2-cyclopentylmethyl-2,3,8,12b-tetrahydro1H-3a,8-methanodibenzo[3,4:6,7]cyclohepta[1,2-c]pyrrole Hydrochloride] | 300 | – | – | – | – | – | – | – | – | – | 60 | 200 | 60 | 7 | > 324 | 60 | 36 | 18 |
| CC(=O)c1ccc2c(c1)[C@]13C[C@H]2c2ccccc2[C@H]1CN(CC1CCCC1)C3 (relative stereo) [Example 66, 5-Acetyl-2-cyclopentylmethyl-2,3,8,12b-tetrahydro-1H3a,8-methanodibenzo[3,4:6,7]cyclohepta[1,2-c]pyrrole Hydrochloride] | > 324 | – | – | – | – | – | – | – | – | – | 12 | 7 | 12 | < 4 | 300 | 20 | 12 | 3.1 |
| Oc1ccc2c(c1)[C@]13C[C@H]2c2ccccc2[C@H]1CN(CC1CCCC1)C3 (relative stereo) [Example 68, 5-Hydroxy-2-cyclopentylmethyl-2,3,8,12b-tetrahydro-1H-3a,8-methanodibenzo[3,4:6,7]cyclohepta[1,2-c]pyrrole Hydrochloride] | > 324 | – | – | – | – | – | – | – | – | – | 20 | 12 | 20 | 12 | > 324 | 60 | 36 | 19 |
| O=Cc1ccc2c(c1)[C@]13C[C@H]2c2ccccc2[C@H]1CN(CC1CCCC1)C3 (relative stereo) [Example 69, 5-Formyl-2-cyclopentylmethyl-2,3,8,12b-tetrahydro-1H-3a,8-methanodibenzo[3,4:6,7]cyclohepta[1,2-c]pyrrole Hydrochloride] | > 324 | – | – | – | – | – | – | – | – | – | 60 | 60 | 60 | 36 | > 324 | 60 | 20 | < 130 |
| Brc1ccc2c(c1)[C@]13C[C@H]2c2ccccc2[C@H]1CN(CC1CCCC1)C3 (relative stereo) [Example 70, 5-Bromo-2-cyclopentylmethyl-2,3,8,12b-tetrahydro-1H-3a,8-methanodibenzo[3,4:6,7]cyclohepta[1,2-c]pyrrole Hydrochloride] | > 324 | – | – | – | – | – | – | – | – | – | 12 | 20 | 12 | 7 | > 324 | 20 | 7 | < 130 |
| CC(=NO)c1ccc2c(c1)[C@]13C[C@H]2c2ccccc2[C@H]1CN(CC1CCCC1)C3 (relative stereo) [Example 71, 5-Acetyl-2-cyclopentylmethyl-2,3,8,12b-tetrahydro-1H-3a,8-methanodibenzo[3,4:6,7]cyclohepta[1,2-c]pyrrole Oxime Hydrochloride] | > 324 | – | – | – | – | – | – | – | – | – | 100 | 7 | 36 | < 4 | 300 | 60 | 20 | 21 |
| Nc1ccc2c(c1)[C@H]1CN(CC3CCCC3)C[C@@]13C[C@@H]2c1ccc(N)cc13 (relative stereo) [Example 72, 5,11-Diamino-2-cyclopentylmethyl-2,3,8,12b-tetrahydro-1H-3a,8-methanodibenzo[3,4:6,7]cyclohepta[1,2-c]pyrrole] | > 324 | – | – | – | – | – | – | – | – | – | 20 | 60 | 36 | – | 200 | 60 | 20 | 7 |
| O=C(O)c1ccc2c(c1)[C@]13C[C@H]2c2ccccc2[C@H]1CN(CC1CCCC1)C3 (relative stereo) [Example 73, 2-Cyclopentylmethyl-2,3,8,12b-tetrahydro-1H-3a,8-methanodibenzo[3,4:6,7]cyclohepta[1,2-c]pyrrole-5-carboxylic Acid Hydrochloride] | > 324 | – | – | – | – | – | – | – | – | – | 60 | 60 | 36 | 36 | > 324 | 100 | 36 | 21 |
| COC(=O)c1ccc2c(c1)[C@]13C[C@H]2c2ccccc2[C@H]1CN(CC1CCCC1)C3 (relative stereo) [Example 74, 2-Cyclopentylmethyl-2,3,8,12b-tetrahydro-1H-3a,8-methanodibenzo[3,4:6,7]cyclohepta[1,2-c]pyrrole-5-carboxylic Acid Hydrochloride, Methyl Ester] | > 324 | – | – | – | – | – | – | – | – | – | 36 | 36 | 36 | < 4 | > 324 | 36 | 7 | 11 |
